Assay results published in ChEMBL document CHEMBL5620430, “Design, synthesis and biological evaluation of indazole derivatives as selective covalent inhibitors of FGFR4 in wild-type and gatekeeper mutants” (Eur J Med Chem, 2023).
Activity calls are given as the source filed them. The calls are words filed in the database; no cut-off is given here.

Experiments:
[1] = biological target: Fibroblast growth factor receptor 1 (Homo sapiens, UniProt P11362)
Description: Inhibition of FGFR1 (unknown origin)

[2] = biological target: Fibroblast growth factor receptor 4 (Homo sapiens, UniProt P22455)
Fibroblast growth factor receptor 4, sequence (P22455 whole entry): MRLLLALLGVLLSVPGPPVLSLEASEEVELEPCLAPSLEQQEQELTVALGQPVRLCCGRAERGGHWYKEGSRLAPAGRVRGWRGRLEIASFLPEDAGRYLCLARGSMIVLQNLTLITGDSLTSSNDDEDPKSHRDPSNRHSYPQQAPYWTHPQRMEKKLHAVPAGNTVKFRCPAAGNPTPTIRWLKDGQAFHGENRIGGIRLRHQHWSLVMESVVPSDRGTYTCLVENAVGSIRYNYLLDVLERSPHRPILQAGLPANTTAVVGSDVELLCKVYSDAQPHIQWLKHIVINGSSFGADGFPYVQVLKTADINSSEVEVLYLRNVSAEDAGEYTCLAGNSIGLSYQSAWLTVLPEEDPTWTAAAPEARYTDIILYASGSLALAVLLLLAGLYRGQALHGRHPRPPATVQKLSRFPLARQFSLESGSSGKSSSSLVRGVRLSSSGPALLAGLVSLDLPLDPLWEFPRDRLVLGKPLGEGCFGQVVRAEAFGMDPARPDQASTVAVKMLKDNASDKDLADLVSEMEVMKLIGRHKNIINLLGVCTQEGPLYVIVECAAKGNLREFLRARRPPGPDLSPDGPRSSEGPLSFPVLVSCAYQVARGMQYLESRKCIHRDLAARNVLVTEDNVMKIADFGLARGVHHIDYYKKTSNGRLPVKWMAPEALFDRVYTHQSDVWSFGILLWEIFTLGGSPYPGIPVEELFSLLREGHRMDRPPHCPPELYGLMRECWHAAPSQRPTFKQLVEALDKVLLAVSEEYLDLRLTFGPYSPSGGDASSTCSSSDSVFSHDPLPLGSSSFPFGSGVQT
Description: Inhibition of FGFR4 (445 to 753 residues) (unknown origin) expressed in Escherichia coli

Huh-7 [3] = experiment: cells; conditions: Homo sapiens
Description: Antiproliferative activity against human Huh-7 cells measured after 24 to 48 hrs by MTT assay

Huh-7 [4] = experiment: Inhibition of colony formation in human Huh-7 cells assessed as reduction in number of colonies at 270 nM measured for 12 days; type: functional, cell-based; conditions: time 12.0 day
Hep 3B2 = experiment: Antiproliferative activity against human Hep3B cells measured after 24 to 48 hrs by MTT assay; type: functional, cell-based
[5] = Antiproliferative activity against human L02 cells measured after 24 to 48 hrs by MTT assay; type: toxicity, cell-based
HepG2 = experiment: Antiproliferative activity against human HepG2 cells measured after 24 to 48 hrs by MTT assay; type: functional, cell-based
BaF3 [6] = experiment: cells; conditions: Mus musculus
Description: Antiproliferative activity against mouse BaF3 cells harbouring ETV6-FGFR4-V550L mutant measured after 24 to 48 hrs by MTT assay

BaF3 [7] = experiment: cells; conditions: Mus musculus; remark: listed apart in the source
Description: Antiproliferative activity against mouse BaF3 cells harbouring ETV6-FGFR4-N535K mutant measured after 24 to 48 hrs by MTT assay

[8] = Metabolic stability in liver microsomes (unknown origin) assessed as half life; type: ADME, Microsome

Fibroblast growth factor receptor 1, sequence (P11362 whole entry): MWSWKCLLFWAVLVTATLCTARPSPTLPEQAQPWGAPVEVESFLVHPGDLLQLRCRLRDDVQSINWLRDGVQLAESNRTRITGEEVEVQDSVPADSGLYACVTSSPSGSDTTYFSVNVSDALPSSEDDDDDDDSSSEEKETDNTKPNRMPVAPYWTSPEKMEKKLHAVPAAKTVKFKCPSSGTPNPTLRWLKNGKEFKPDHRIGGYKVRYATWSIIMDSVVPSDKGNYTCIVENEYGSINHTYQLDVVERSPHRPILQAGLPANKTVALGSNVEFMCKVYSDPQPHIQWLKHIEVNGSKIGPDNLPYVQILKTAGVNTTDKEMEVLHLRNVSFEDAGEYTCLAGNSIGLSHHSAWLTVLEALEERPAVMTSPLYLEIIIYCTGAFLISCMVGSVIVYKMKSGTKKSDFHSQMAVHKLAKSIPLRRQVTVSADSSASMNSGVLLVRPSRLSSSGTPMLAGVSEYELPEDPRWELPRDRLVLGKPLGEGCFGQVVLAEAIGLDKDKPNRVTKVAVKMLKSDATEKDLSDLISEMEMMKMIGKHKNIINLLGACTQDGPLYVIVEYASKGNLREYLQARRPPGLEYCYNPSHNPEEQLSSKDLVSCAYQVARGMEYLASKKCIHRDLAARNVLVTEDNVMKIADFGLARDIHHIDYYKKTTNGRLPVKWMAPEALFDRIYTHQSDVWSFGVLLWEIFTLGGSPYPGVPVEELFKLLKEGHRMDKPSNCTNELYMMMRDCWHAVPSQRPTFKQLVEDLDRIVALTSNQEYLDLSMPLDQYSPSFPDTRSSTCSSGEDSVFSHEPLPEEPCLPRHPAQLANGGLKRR

| Compound | IC50 [1] [nM] | IC50 [2] [nM] | IC50 (Huh-7 [3]) [nM] | other results |
| --- | --- | --- | --- | --- |
| C=CC(=O)Nc1ccccc1-c1n[nH]c2ccc(OCc3ccncc3)cc12 | – | 243 | > 3000 | – |
| C=CC(=O)Nc1cccc(-c2n[nH]c3ccc(O[C@H](C)c4c(Cl)cncc4Cl)cc23)c1 | > 3000 | 1200 | 2440 | – |
| C=CC(=O)Nc1ccccc1-c1n[nH]c2ccc(OC(C)c3c(F)cncc3F)cc12 (stereo not drawn) | > 3000 | 42 | 1270 | – |
| C=CC(=O)Nc1ccccc1-c1n[nH]c2ccc(OCc3ccccn3)cc12 | – | 481 | > 3000 | – |
| C=CC(=O)Nc1cc2c(cc1-c1n[nH]c3ccc(O[C@H](C)c4c(Cl)cncc4Cl)cc13)CN(CCOC)CC2 | > 3000 | 9.7 | 753 | – |
| C=CC(=O)N[C@H]1CCOC[C@H]1Nc1ncc2cc(-c3c(Cl)c(OC)cc(OC)c3Cl)ccc2n1 [FISOGATINIB] | 1030 | 3.9 | – | inhibition (Huh-7 [4]): Active; IC50 (Hep 3B2): 46 nM; IC50 [5]: > 10000 nM; IC50 (HepG2): 4430 nM; IC50 (BaF3 [6]): 396 nM; IC50 (BaF3 [7]): 528 nM |
| C=CC(=O)Nc1ccccc1-c1n[nH]c2ccc(OCc3cccnc3)cc12 | > 3000 | 83 | > 3000 | – |
| C=CC(=O)Nc1ccccc1-c1n[nH]c2ccc(OC(C)c3c(Cl)cccc3Cl)cc12 (stereo not drawn) | – | 252 | > 3000 | – |
| C=CC(=O)Nc1cc2c(cc1-c1n[nH]c3ccc(O[C@H](C)c4c(Cl)cncc4Cl)cc13)CN(C(=O)OC(C)(C)C)C2 | > 3000 | – | 859 | – |
| C=CC(=O)Nc1ccccc1-c1n[nH]c2ccc(OCc3c(Cl)cncc3Cl)cc12 | > 3000 | 27 | 754 | – |
| C=CC(=O)Nc1ccccc1-c1n[nH]c2ccc(OCc3c(Cl)cccc3Cl)cc12 | – | 764 | > 3000 | – |
| C=CC(=O)Nc1ccccc1-c1n[nH]c2ccc(OC(C)c3ccncc3)cc12 (stereo not drawn) | > 3000 | 169 | > 3000 | – |
| C=CC(=O)Nc1ccccc1-c1n[nH]c2ccc(O[C@@H](C)c3c(Cl)cncc3Cl)cc12 | – | – | > 3000 | – |

Now from value to compound, other results behind:

| IC50 [1] [nM] | IC50 [2] [nM] | IC50 (Huh-7 [3]) [nM] | Compound | other results |
| --- | --- | --- | --- | --- |
| > 3000 | 3.1 | 132 | C=CC(=O)Nc1cc2c(cc1-c1n[nH]c3ccc(O[C@H](C)c4c(Cl)cncc4Cl)cc13)CN(C)CC2 | – |
| > 3000 | 3.5 | 48 | C=CC(=O)Nc1cc2c(cc1-c1n[nH]c3ccc(O[C@H](C)c4c(Cl)cncc4Cl)cc13)CN(S(C)(=O)=O)C2 | – |
| > 3000 | 3.2 | 324 | C=CC(=O)Nc1ccc(F)cc1-c1n[nH]c2ccc(O[C@H](C)c3c(Cl)cncc3Cl)cc12 | – |
| > 3000 | 1.9 | 67 | C=CC(=O)Nc1cc2c(cc1-c1n[nH]c3ccc(O[C@H](C)c4c(Cl)cncc4Cl)cc13)CN(CCO)C2 | – |
| > 3000 | 2.1 | 15 | C=CC(=O)Nc1ccc(N2CCN(C)CC2)cc1-c1n[nH]c2ccc(O[C@H](C)c3c(Cl)cncc3Cl)cc12 | IC50 [5]: 4280 nM; half-life [8]: 2.41 min; IC50 (BaF3 [6]): 1 nM |
| > 3000 | 3.2 | 193 | C=CC(=O)Nc1cc2c(cc1-c1n[nH]c3ccc(O[C@H](C)c4c(Cl)cncc4Cl)cc13)CN(CCOC)C2 | – |
| > 3000 | 2.7 | 50 | C=CC(=O)Nc1cc2c(cc1-c1n[nH]c3ccc(O[C@H](C)c4c(Cl)cncc4Cl)cc13)CN(C)C2 | – |
| > 3000 | 6.2 | 275 | C=CC(=O)Nc1cc2c(cc1-c1n[nH]c3ccc(O[C@H](C)c4c(Cl)cncc4Cl)cc13)CN(CCO)CC2 | – |
| > 3000 | 2.5 | 20 | C=CC(=O)Nc1ccc(N2CCOCC2)cc1-c1n[nH]c2ccc(O[C@H](C)c3c(Cl)cncc3Cl)cc12 | IC50 [5]: > 10000 nM; half-life [8]: 2.73 min; IC50 (BaF3 [6]): 3 nM |
| > 3000 | 3.5 | 190 | C=CC(=O)Nc1cc(F)ccc1-c1n[nH]c2ccc(O[C@H](C)c3c(Cl)cncc3Cl)cc12 | – |
| > 3000 | – | 80 | C=CC(=O)Nc1ccccc1-c1n[nH]c2ccc(O[C@H](C)c3c(Cl)cncc3Cl)cc12 | – |
| > 3000 | 2.5 | 54 | C=CC(=O)Nc1cc2c(cc1-c1n[nH]c3ccc(O[C@H](C)c4c(Cl)cncc4Cl)cc13)CCN(CCOC)C2 | – |
| > 3000 | 2.6 | 30 | C=CC(=O)Nc1cc2c(cc1-c1n[nH]c3ccc(O[C@H](C)c4c(Cl)cncc4Cl)cc13)CCN(CCO)C2 | IC50 [5]: > 10000 nM; half-life [8]: 3.04 min; IC50 (BaF3 [6]): 1 nM |
| > 3000 | 1.8 | 12 | C=CC(=O)Nc1cc(N2CCN(C)CC2)ccc1-c1n[nH]c2ccc(O[C@H](C)c3c(Cl)cncc3Cl)cc12 | IC50 [5]: 3940 nM; half-life [8]: 3.8 min; IC50 (BaF3 [6]): 2 nM |
| > 3000 | 2.2 | 17 | C=CC(=O)Nc1cc(N2CCOCC2)ccc1-c1n[nH]c2ccc(O[C@H](C)c3c(Cl)cncc3Cl)cc12 | IC50 [5]: > 10000 nM; half-life [8]: 1.37 min; IC50 (BaF3 [6]): 2 nM |
| > 3000 | – | 221 | C=CC(=O)Nc1ccccc1-c1n[nH]c2ccc(OC(C)c3c(Cl)cncc3Cl)cc12 (racemic) | – |
